Laboratory results published in US20040102365A1, “Pharmaceutical composition for prevention and remedy of osteoporosis” (priority 2003, published 2004).
Where a SMILES comes first, the peptide text is derived from it. [ ]: non-standard residue; d: D form. dLac(3-vinyl) = C=CC[C@@H](O)C(=O)O; dHica = CC(C)C[C@@H](O)C(=O)O; NMeV = CN[C@H](C(=O)O)C(C)C; NMeA = CN[C@@H](C)C(=O)O; βAla = NCCC(=O)O

Key:
osteoclasts [1] = experiment: Effect on the morphology and survival of osteoclasts; assay type: cell-based, mouse
[2] = tested on: ^45Ca-labelled fetal radius and ulna, organ culture; experiment: Inhibition of ^45Ca release in mouse organ culture (PTH-induced calcium release); assay type: cell-based, ddY mice
Description: 15 to 16 days pregnant ddY mice were injected subtaneously with a solution of ^45Ca-labelled calcium chloride to label their bone. After one day, mice were anesthetized with ether, and disinfected in 70% ethanol. Fetuses were obtained from, and transferred to a sterile dish. Under a stereo microscope, after cutting forelegs and peeling off skin thereof, attached muscle was removed from radius and ulna, and cartilage portions existing at the both ends of the two bones were then obtained. During the preparation, the bones were kept moist. Before culturing, a stainless steel membrane was put into a 24-well plate containing 0.5 mL BGJb medium (Gibco, USA), and the obtained bone was then placed onto the membrane. After incubation for 24 hours, bone was transferred to destruxin E-containing medium and further incubated for 72 hours. Herein, parathyroid hormone (PTH) inducing release of calcium was used, and the inhibitory effect of destruxin E on the calcium release by PTH was analyzed. The amounts of ^45Ca remaining in bone and released to medium were measured using 5% TCA, and bone-resorbing activity was calculated as follows.
Bone-resorbing activity=released amount of ^45Ca to medium/(released amount of ^45Ca to medium+amount of ^45Ca remaining in bone)×100

osteoclasts [3] = experiment: Pit formation assay (bone resorption by osteoclasts on bone fragments); assay type: cell-based, mouse; set-up: Inhibitory Activity versus pit formation: unit not given here
Description: Since most osteoclasts growing on bone surfaces have the ability to absorb bone, leaving pits, whether the osteoclasts prepared in Example 1 have bone resorption ability or was not determined by analyzing the number and volume of pits.
Bone fragments were prepared in a thickness of 1 mm, put in methanol, disinfected under UV light on a clean bench, and then transferred to wells of a 96-well plate, after which 100 μl α-MEM medium (10% FCS) was added. […] After incubation for 1 day, bone fragments and osteoclasts growing on them were observed micoscopically and then stored at 4° C.

osteoclasts [4] = experiment: Actin ring assay; assay type: cell-based, mouse
Description: In order to observe the formation and shape of actin rings, which function to support the cytoskeleton structure of osteoclasts, an actin ring assay was performed. After removing culture medium, osteoclasts cultured in the presence or absence of destruxin E were fixed with formalin for 10 mins, washed once with a solution containing Tween 20, and treated with 300 U rhodamine phalloidin (Sigma, USA) dissolved in methanol in a dark room.

| Compound | MIC: Minimum Inhibitory Concentration at which survival of all osteoclasts is inhibited (osteoclasts [1]) | Inhibitory effect on ^45Ca release, destruxin E compared with eel calcitonin [2] | Inhibitory Activity versus pit formation (osteoclasts [3]; 0.1 μM destruxin B) | Inhibitory Activity versus pit formation (osteoclasts [3]; 0.5 μM destruxin B) | Inhibitory Activity versus pit formation (osteoclasts [3]; 1 μM destruxin B) | Inhibitory Activity versus pit formation (osteoclasts [3]; 5 μM destruxin B) | IC50 (osteoclasts [3]; read-out: 50% inhibition (IC50) of pit formation) | Inhibitory Activity versus actin ring (%) (osteoclasts [4]; 0.1 μM destruxin B) | Inhibitory Activity versus actin ring (%) (osteoclasts [4]; 0.5 μM destruxin B) | Inhibitory Activity versus actin ring (%) (osteoclasts [4]; 1 μM destruxin B) | Inhibitory Activity versus actin ring (%) (osteoclasts [4]; 5 μM destruxin B) | IC50 (osteoclasts [4]; read-out: 50% inhibition (IC50) of actin ring formation) |
| --- | --- | --- | --- | --- | --- | --- | --- | --- | --- | --- | --- | --- |
| C=CC[C@H]1OC(=O)CCNC(=O)[C@H](C)N(C)C(=O)[C@H](C(C)C)N(C)C(=O)[C@H]([C@@H](C)CC)NC(=O)[C@@H]2CCCN2C1=O [Destruxin A] (cyclo([dLac(3-vinyl)]PI[NMeV][NMeA][βAla])) | 20 µM | – | – | – | – | – | – | – | – | – | – | – |
| eel calcitonin | – | the inhibitory effect of destruxin E is higher than that of eel calcitonin | – | – | – | – | – | – | – | – | – | – |
| CC[C@H](C)[C@@H]1NC(=O)[C@@H]2CCCN2C(=O)[C@@H](CC(C)C)OC(=O)CCNC(=O)[C@H](C)N(C)C(=O)[C@H](C(C)C)N(C)C1=O [Destruxin B] (cyclo([dHica]PI[NMeV][NMeA][βAla])) | 10 µM | – | 25 | 71 | 94 | 100 | 200 nM | 12% | 41% | 92% | 100% | 600 nM |
